Measured values from ChEMBL document CHEMBL5380794, “Discovery of a Potent and Selective STAT5 PROTAC Degrader with Strong Antitumor Activity In Vivo in Acute Myeloid Leukemia” (J Med Chem, 2023).
Calls of active or inactive are those of the source. No cut-off for these calls is given here.

What was measured:
[1] = target: T1, Signal transducer and activator of transcription 6 (Homo sapiens, UniProt P42226); assay: Binding affinity to STAT6 SH2 domain (unknown origin) assessed as inhibition constant by FP assay
T1 sequence (P42226 whole entry): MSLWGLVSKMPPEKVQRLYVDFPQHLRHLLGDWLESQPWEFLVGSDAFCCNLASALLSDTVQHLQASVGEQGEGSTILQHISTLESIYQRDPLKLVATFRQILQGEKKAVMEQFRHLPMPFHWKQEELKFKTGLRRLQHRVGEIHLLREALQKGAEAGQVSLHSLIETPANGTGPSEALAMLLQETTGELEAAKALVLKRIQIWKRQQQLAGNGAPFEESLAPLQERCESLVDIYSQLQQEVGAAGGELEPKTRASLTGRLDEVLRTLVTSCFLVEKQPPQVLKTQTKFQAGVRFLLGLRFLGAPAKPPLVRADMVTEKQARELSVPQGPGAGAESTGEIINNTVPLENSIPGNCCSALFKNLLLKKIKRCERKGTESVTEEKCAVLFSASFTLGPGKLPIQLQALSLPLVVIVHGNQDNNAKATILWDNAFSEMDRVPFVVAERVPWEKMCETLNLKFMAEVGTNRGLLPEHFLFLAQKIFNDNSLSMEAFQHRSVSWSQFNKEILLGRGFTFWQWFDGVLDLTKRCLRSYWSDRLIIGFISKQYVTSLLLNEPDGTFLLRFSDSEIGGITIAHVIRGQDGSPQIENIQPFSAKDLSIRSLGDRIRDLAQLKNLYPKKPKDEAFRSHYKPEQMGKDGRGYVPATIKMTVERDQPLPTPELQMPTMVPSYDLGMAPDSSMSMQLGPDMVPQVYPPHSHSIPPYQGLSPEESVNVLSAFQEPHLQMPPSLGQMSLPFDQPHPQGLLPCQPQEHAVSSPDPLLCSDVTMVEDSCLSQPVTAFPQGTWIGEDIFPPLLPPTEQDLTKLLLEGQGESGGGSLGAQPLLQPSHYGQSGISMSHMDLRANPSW

[2] = target: T2, Signal transducer and activator of transcription 5B (Homo sapiens, UniProt P51692); assay: Binding affinity to STAT5B (unknown origin) assessed as inhibition constant by FP assay
T2 sequence (P51692 whole entry): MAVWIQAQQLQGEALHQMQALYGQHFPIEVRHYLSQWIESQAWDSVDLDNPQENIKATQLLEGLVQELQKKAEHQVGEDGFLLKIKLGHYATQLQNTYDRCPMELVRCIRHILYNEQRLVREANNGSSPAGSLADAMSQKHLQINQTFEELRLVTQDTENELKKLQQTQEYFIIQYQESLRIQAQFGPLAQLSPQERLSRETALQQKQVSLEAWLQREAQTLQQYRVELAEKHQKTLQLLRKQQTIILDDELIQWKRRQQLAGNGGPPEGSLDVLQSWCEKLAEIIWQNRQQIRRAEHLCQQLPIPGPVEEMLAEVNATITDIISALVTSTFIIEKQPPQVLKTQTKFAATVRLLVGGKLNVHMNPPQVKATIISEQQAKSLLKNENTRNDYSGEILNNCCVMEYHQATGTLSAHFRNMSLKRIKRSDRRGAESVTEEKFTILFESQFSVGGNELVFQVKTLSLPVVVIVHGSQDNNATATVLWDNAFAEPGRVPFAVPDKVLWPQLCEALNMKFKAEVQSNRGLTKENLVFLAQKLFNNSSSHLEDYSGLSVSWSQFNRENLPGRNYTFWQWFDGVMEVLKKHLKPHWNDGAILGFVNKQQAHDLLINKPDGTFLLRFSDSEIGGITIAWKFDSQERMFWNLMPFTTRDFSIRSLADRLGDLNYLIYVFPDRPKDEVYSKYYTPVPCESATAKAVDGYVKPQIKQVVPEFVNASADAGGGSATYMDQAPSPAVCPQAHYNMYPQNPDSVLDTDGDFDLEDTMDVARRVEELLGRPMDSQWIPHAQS

[3] = target: T3, Signal transducer and activator of transcription 5A (Homo sapiens, UniProt P42229); assay: Binding affinity to N-terminal 6his-tagged human STAT5A (136 to 705 residues) expressed in Escherichia coli BL21-DE3 rosetta cells assessed as inhibition constant by FP assay
T3 sequence (P42229 whole entry): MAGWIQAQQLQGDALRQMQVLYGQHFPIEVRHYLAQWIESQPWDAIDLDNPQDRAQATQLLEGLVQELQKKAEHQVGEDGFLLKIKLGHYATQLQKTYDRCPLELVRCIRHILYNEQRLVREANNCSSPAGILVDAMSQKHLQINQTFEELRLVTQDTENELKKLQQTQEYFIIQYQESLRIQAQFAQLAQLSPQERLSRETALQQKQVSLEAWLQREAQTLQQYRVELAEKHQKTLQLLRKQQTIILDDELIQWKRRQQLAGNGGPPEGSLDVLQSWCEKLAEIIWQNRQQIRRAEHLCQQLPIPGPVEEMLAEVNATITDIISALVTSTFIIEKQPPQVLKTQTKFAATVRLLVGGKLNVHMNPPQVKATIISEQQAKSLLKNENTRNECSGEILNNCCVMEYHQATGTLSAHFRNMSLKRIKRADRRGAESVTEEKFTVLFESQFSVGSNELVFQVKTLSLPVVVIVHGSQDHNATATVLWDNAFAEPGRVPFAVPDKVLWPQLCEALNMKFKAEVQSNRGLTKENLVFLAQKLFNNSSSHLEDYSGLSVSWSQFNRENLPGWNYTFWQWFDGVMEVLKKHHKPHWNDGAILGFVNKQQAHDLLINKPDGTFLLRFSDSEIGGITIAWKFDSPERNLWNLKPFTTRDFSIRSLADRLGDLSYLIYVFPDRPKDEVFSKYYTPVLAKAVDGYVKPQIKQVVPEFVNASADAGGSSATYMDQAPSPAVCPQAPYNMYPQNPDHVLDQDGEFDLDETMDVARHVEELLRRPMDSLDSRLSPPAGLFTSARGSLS

[4] = system: SKNO-1; assay: Effect on STAT6 level in human SKNO-1 cells upto 5 uM measured for 18 hrs by Western blot analysis; type: functional, cell-based
[5] = system: SKNO-1; assay: Effect on STAT4 level in human SKNO-1 cells upto 5 uM measured for 18 hrs by Western blot analysis; type: functional, cell-based
[6] = system: MV4-11; assay: Effect on STAT3 level in human MV4-11 cells upto 5 uM measured for 18 hrs by Western blot analysis; type: functional, cell-based
[7] = system: MV4-11; assay: Effect on STAT1 level in human MV4-11 cells upto 5 uM measured for 18 hrs by Western blot analysis; type: functional, cell-based
[8] = system: MV4-11; assay: Effect on STAT6 level in human MV4-11 cells upto 5 uM measured for 18 hrs by Western blot analysis; type: functional, cell-based
[9] = system: MV4-11; assay: Effect on STAT2 level in human MV4-11 cells upto 5 uM measured for 18 hrs by Western blot analysis; type: functional, cell-based
[10] = target: T4, Signal transducer and activator of transcription 5A (Homo sapiens) (UniProt P42229); assay: Inhibition of STAT5 phosphorylation in human MV4-11 cells assessed as reduction in […] phosphorylation at Y694 residue at 0.2 uM measured for 6 hrs by Western blot analysis; type: cell-based
T4 sequence (whole entry): T3 sequence (P42229 whole entry)

[11] = system: SKNO-1; assay: Effect on STAT3 level in human SKNO-1 cells upto 5 uM measured for 18 hrs by Western blot analysis; type: functional, cell-based
[12] = target: T4, Signal transducer and activator of transcription 5A (Homo sapiens); assay: Inhibition of STAT5 phosphorylation in human MV4-11 cells assessed as reduction in STAT5 level at 1 uM measured for 6 hrs by Western blot analysis; type: cell-based
[13] = system: SKNO-1; assay: Effect on STAT1 level in human SKNO-1 cells upto 5 uM measured for 18 hrs by Western blot analysis; type: functional, cell-based
[14] = system: SKNO-1; assay: Effect on STAT2 level in human SKNO-1 cells upto 5 uM measured for 18 hrs by Western blot analysis; type: functional, cell-based
[15] = target: Protein cereblon (Homo sapiens, UniProt Q96SW2); assay: Binding affinity to GST-tagged wild type human CRBN assessed as inhibition constant by TR-FRET assay
[16] = target: T4, Signal transducer and activator of transcription 5A (Homo sapiens); assay: Induction of STAT5 degradation in human SKNO-1 cells assessed as maximal degradation at 0.05 to 5 uM measured for 18 hrs by Western blot analysis relative to control; type: cell-based; details: dose 0.05-5 µM
[17] = target: T1, Signal transducer and activator of transcription 6; assay: Induction of STAT6 degradation in human SKNO-1 cells measured for 18 hrs by Western blot analysis; type: cell-based; details: read-out: DC50
[18] = target: T3, Signal transducer and activator of transcription 5A; assay: Induction of STAT5 degradation in human SKNO-1 cells measured for 18 hrs by Western blot analysis; type: cell-based
[19] = species: Homo sapiens; assay: Selectivity ratio of DC50 for induction of STAT5 degradation in human SKNO-1 cells to DC50 for STAT6 degradation in human SKNO-1 cells; type: cell-based

Protein cereblon, sequence (Q96SW2 whole entry): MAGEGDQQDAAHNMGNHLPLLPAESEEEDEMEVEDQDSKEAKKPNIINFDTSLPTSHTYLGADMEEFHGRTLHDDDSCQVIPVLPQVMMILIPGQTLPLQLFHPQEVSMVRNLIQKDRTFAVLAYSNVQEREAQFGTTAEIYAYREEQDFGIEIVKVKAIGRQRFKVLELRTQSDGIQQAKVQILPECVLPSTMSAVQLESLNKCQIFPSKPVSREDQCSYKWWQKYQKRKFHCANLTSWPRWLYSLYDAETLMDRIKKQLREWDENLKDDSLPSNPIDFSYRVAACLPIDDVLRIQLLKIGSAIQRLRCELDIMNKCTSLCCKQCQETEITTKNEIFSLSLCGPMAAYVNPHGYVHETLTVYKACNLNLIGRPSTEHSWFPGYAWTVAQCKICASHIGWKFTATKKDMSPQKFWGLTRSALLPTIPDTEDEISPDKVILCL

## CN(C)C(=O)CCN(C(=O)[C@@H]1CCCN1C(=O)[C@H](Cc1ccc(F)cc1)NC(=O)c1cc2cc(C(F)(F)P(=O)(O)O)ccc2s1)c1ccc(-c2nccs2)cc1
[1]
  Ki: 3500 nM
[2]
  Ki: 1700 nM
[3]
  Ki: 1000 nM

## CN(CCCC#Cc1cccc2c1CN(C1CCC(=O)N(C)C1=O)C2=O)C(=O)CCN(C(=O)[C@@H]1CCCN1C(=O)[C@@H](NC(=O)c1cc2cc(C(F)(F)P(=O)(O)O)ccc2s1)C(C)(C)C)c1ccc(-c2nccs2)cc1 (stereo partly specified)
[4]
  Activity: inactive
[5]
  Activity: inactive
[6]
  Activity: inactive
[7]
  Activity: inactive
[8]
  Activity: inactive
[9]
  Activity: inactive
[10]
  inhibition: inactive
[11]
  Activity: inactive
[12]
  inhibition: inactive
[13]
  Activity: inactive
[14]
  Activity: inactive
[15]
  Ki: > 5000 nM

## CN(C)C(=O)CCN(C(=O)[C@@H]1CCCN1C(=O)[C@@H](NC(=O)c1cc2cc(C(F)(F)P(=O)(O)O)ccc2s1)C(C)(C)C)c1ccc2ccccc2c1
[1]
  Ki: 200 nM
[2]
  Ki: 1000 nM
[3]
  Ki: 1200 nM

## CN(C)C(=O)CCN(C(=O)[C@@H]1CCCN1C(=O)[C@H](Cc1ccc(C(F)(F)F)cc1)NC(=O)c1cc2cc(C(F)(F)P(=O)(O)O)ccc2s1)c1ccc(-c2nccs2)cc1
[1]
  Ki: 4000 nM
[2]
  Ki: 2500 nM
[3]
  Ki: 2300 nM

## CN(C)C(=O)CCN(C(=O)[C@@H]1CCCN1C(=O)[C@@H](NC(=O)c1cc2cc(C(F)(F)P(=O)(O)O)ccc2s1)C1CC1)c1ccc(-c2nccs2)cc1
[1]
  Ki: 1300 nM
[2]
  Ki: 3100 nM
[3]
  Ki: 2900 nM

## CN(CCCC#Cc1cccc2c1CN(C1CCC(=O)NC1=O)C2=O)C(=O)CCN(C(=O)[C@@H]1CCCN1C(=O)[C@@H](NC(=O)c1cc2cc(C(F)(F)P(=O)(O)O)ccc2s1)C(C)(C)C)c1ccc(Br)cc1 (stereo partly specified)
[16]
  Emax: > 95%
[17]
  DC50: > 5000 nM
[18]
  DC50: 190 nM

## CC(C)(C)[C@H](NC(=O)c1cc2cc(C(F)(F)P(=O)(O)O)ccc2s1)C(=O)N1CCC[C@H]1C(=O)N(CCC(=O)NCCCC#Cc1cccc2c1CN(C1CCC(=O)NC1=O)C2=O)c1ccc(Br)cc1 (stereo partly specified)
[16]
  Emax: > 95%
[19]
  Ratio: > 20
[17]
  DC50: > 5000 nM
[18]
  DC50: 230 nM

## CN(C)C(=O)CCN(C(=O)[C@@H]1CCCN1C(=O)[C@@H](NC(=O)c1cc2cc(C(F)(F)P(=O)(O)O)ccc2s1)C(C)(C)C)c1cccc(-c2nccs2)c1
[1]
  Ki: 1900 nM
[2]
  Ki: 6100 nM
[3]
  Ki: 4900 nM

## CN(C)C(=O)CCN(C(=O)[C@@H]1CCCN1C(=O)[C@@H](NC(=O)c1cc2cc(C(F)(F)P(=O)(O)O)ccc2s1)c1ccccc1)c1ccc(-c2nccs2)cc1
[1]
  Ki: 2500 nM
[2]
  Ki: 4000 nM
[3]
  Ki: 3200 nM

## CN(C)C(=O)CCN(C(=O)[C@@H]1CCCN1C(=O)[C@H](CCc1ccccc1)NC(=O)c1cc2cc(C(F)(F)P(=O)(O)O)ccc2s1)c1ccc(-c2nccs2)cc1
[1]
  Ki: 1500 nM
[2]
  Ki: 1600 nM
[3]
  Ki: 1400 nM

## CN(C)C(=O)CCN(C(=O)[C@@H]1CCCN1C(=O)[C@@H](NC(=O)c1cc2cc(C(F)(F)P(=O)(O)O)ccc2s1)C(C)(C)C)c1ccc(-c2nccs2)cc1
[4]
  Activity: inactive
[5]
  Activity: inactive
[6]
  Activity: inactive
[7]
  Activity: inactive
[8]
  Activity: inactive
[9]
  Activity: inactive
[10]
  inhibition: inactive
[11]
  Activity: inactive
[12]
  inhibition: inactive
[2]
  Ki: 1000 nM
[13]
  Activity: inactive
[14]
  Activity: inactive
[3]
  Ki: 1000 nM

## CN(C)C(=O)CCN(C(=O)[C@@H]1CCCN1C(=O)[C@H](Cc1ccc(Br)cc1)NC(=O)c1cc2cc(C(F)(F)P(=O)(O)O)ccc2s1)c1ccc(-c2nccs2)cc1
[1]
  Ki: 3000 nM
[2]
  Ki: 1600 nM
[3]
  Ki: 1200 nM
